# Experimental data taken from patent US8268366B2, “Cosmetic composition containing salt-fermented extract of natural materials” (Amorepacific Corporation, priority 2008, dated 2012).
# Assays:
# collagenase = test: Measurement of collagenase expression inhibitory activity in human fibroblasts; format: cell-based; settings: human fibroblasts treated at 10^−4 mole for 24 hours; untreated control group set as 100
# Procedure: The collagenase expression inhibitory activity of the extracts of natural materials, prepared in Comparative Examples 1 and 2, and the salt-fermented extracts of natural materials, prepared in Examples 1 to 7, were measured comparatively with those of tocopherol and EGCG. […] Tocopherol and EGCG, which are antioxidant substances, are known to prevent skin aging by regenerating the epidermal cells of the skin.
# In the test, human fibroblasts were seeded into a 96-well microtiter plate containing DMEM (Dulbecco's Modified Eagle's Media) medium containing 2.5% fetal bovine serum to a density of 5,000 cells/well and were cultured to a confluence of about 90%. […]
# The collected cell culture broths were measured for collagenase production using a commercially available collagenase measurement device (Amersham Phamasia, USA). […]
# The absorbance of the 96-well plate having a yellow color was measured at 405 nm using an absorbance spectrometer, and the degree of synthesis of collagenase was calculated according to the following Equation 1. Herein, the absorbance of the cell culture broth collected from the group not treated with the composition was used as a control. That is, the expression of collagenase in the control group was set as 100, and the expression of collagenase in the group treated with the composition was calculated relative to the control group.
# procollagen = test: Test of the effect of promoting procollagen production in human fibroblasts; format: cell-based; settings: human fibroblasts treated at 10^−4 mole for 24 hours; procollagen type-1 C-peptide EIA; untreated control group set as 100
# Procedure: Procollagen is a collagen production-inducing substance necessary for collagen production and aging prevention, and if the degree of production of procollagen is high, the degree of production of collagen is also high, and thus the production of skin wrinkles can be prevented. Also, vitamin C is known as a component essential for the synthesis of collagen. […] The cell culture broths were then collected. After 24 hours, the amount of released procollagen in the medium was measured with a procollagen type-1 C-peptide EIA kit (MK101, Takara, Japan). Based on the measurement results, the production of procollagen was calculated according to the following Equation 2. Herein, the production of procollagen collected from the group not treated with the composition was used as a control group. […] [formula]
Molecule,Collagenase expression (%) (collagenase),Procollagen production (%) (procollagen)
O=C(O[C@@H]1Cc2c(O)cc(O)cc2O[C@@H]1c1cc(O)c(O)c(O)c1)c1cc(O)c(O)c(O)c1 [EGCG],60%,
"O=C1O[C@H]([C@@H](O)CO)C(O)=C1O [Vitamin C, vitamin C]",,120%
tocopherol,75%,
